The results in this text go back to ChEMBL document CHEMBL5230155, “Recent contributions of quinolines to antimalarial and anticancer drug discovery research” (Eur J Med Chem, 2021).

The test system of data set [1] is A2780. Description: Induction of apoptosis in human A2780 cells assessed as accumulation at G2/M phase at 5 uM (reference value: 10%). The class given is functional.
The subject of data set [2] is MCF7. Briefly: Induction of apoptosis in human MCF7 cells assessed as accumulation at G2/M phase at 10 uM (reference value: 10%). The class given is functional.
In data set [3] the test system is MCF7. Description: Antiproliferative activity against mitoxantrone resistant human MCF7 cells. The class given is functional, cell-based.
The test system of data set [4] is MCF7. Description: Antiproliferative activity against human MCF7 cells. The class given is functional, cell-based.
In data set [5] the test system is A2780. Description: Antiproliferative activity against cisplatin resistant human A2780 cells. The class given is functional, cell-based.
For data set [6], the system named is A2780. Description: Antiproliferative activity against human A2780 cells. The class given is functional, cell-based.
A short description of data set [7]: Antiproliferative activity against HUVEC cells. The conditions noted are these: human. The class given is toxicity, cell-based.
The test system of data set [8] is Plasmodium berghei. Description: Antiplasmodial activity against Plasmodium berghei ANKA infected in mouse assessed as reduction in parasitaemia at 20 mg/kg/day, ip administered for 4 days. The class given is functional. Details: scale not given: the % may be the effect or the level left. The conditions noted are these: time 4 day.
The test system of data set [9] is Plasmodium falciparum. Description: Antimalarial activity against Plasmodium falciparum 3D7. The class given is functional, organism-based.
Data set [10] relates to Hemozoin. Briefly: Inhibition of beta-hematin formation relative to control. As to conditions: concentration not given here.
Data set [11] relates to Hemozoin. Briefly: Inhibition of beta-hematin formation.
The test system of data set [12] is Plasmodium berghei. Briefly: Antiplasmodial activity against Plasmodium berghei infected in mouse assessed as increase in mean survival time at 100 mg/kg, po administered for 3 days (reference value: 7.6 day). The class given is functional. As to conditions: time 3 day.
Data set [13] has as its system Plasmodium berghei. Briefly: Antiplasmodial activity against Plasmodium berghei infected in mouse assessed as reduction in parasitaemia at 200 mg/kg/day, ip administered for 4 days. The class given is functional. Details: scale not given: the % may be the effect or the level left. As to conditions: time 4 day.
In data set [14] the test system is Plasmodium berghei. Description: Antimalarial activity against Plasmodium berghei ANKA infected in mouse assessed increase in survival time at 20 mg/kg/day, ip for 4 days. The class given is functional. The conditions noted are these: time 4 day.
Data set [15] has as its system RPMI-8226. Briefly: Cytotoxicity against human RPMI-8226 cells. The class given is functional, cell-based.
In data set [16] the test system is HCT-116. Description: Cytotoxicity against human HCT-116 cells. The class given is functional, cell-based.
For data set [17], the system named is G-361. Description: Antiproliferative activity against human G-361 cells. The class given is functional, cell-based.
The test system of data set [18] is Hep 3B2. Description: Cytotoxicity against human Hep3B cells. The class given is functional, cell-based.
Data set [19] in a line: Cytotoxicity against human SLMT-1 cells.
The subject of data set [20] is HepG2. Description: Antitumor activity against human HepG2 cells xenografted in nude mouse assessed as reduction in tumor increment rate at 5 mg/kg/day (reference value: 100%). The class given is functional. Further details: scale not given: the % may be the effect or the level left.
The subject of data set [21] is Plasmodium falciparum. Description: Antimalarial activity against CQ-resistant Plasmodium falciparum Dd2. The class given is functional, organism-based.
Data set [22] relates to Breast carcinoma cell. Description: Antiproliferative activity against human breast cancer cells. The class given is functional.
The subject of data set [23] is Leukemia cell. Briefly: Antiproliferative activity against human Leukemia cells. The class given is functional.
Data set [24] addresses Hepatocyte growth factor receptor (Homo sapiens, UniProt P08581). Briefly: Inhibition of c-Met (unknown origin).
Data set [25] can be described thus: Antiproliferative activity against human CNS cells. The class given is functional. As to conditions: CNS cell.
The subject of data set [26] is MV4-11. Briefly: Antiproliferative activity against human MV4-11 cells. The class given is functional, cell-based.
Data set [27] concerns the target Histone-lysine N-methyltransferase, H3 lysine-79 specific (Homo sapiens, UniProt Q8TEK3). Briefly: Inhibition of DOT1L (unknown origin).
In data set [28] the target is Serine/threonine-protein kinase mTOR (Homo sapiens, UniProt P42345). Briefly: Inhibition of mTOR (unknown origin).
The target in data set [29] is Dual specificity mitogen-activated protein kinase kinase 1 (Homo sapiens, UniProt Q02750). Briefly: Inhibition of MEK1 (unknown origin).
Data set [30] has as its system BEL-7404 tumor cell line. Description: Antiproliferative activity against human BEL-7404 cells. The class given is functional, cell-based.
In data set [31] the test system is HepG2. Briefly: Cytotoxicity against human HepG2 cells. The class given is functional, cell-based. As to conditions: Homo sapiens, HepG2.
For data set [32], the system named is HepG2. Description: Antitumor activity against human HepG2 cells xenografted in nude mouse assessed as reduction in tumor increment rate at 20 mg/kg/day (reference value: 100%). The class given is functional. Further details: scale not given: the % may be the effect or the level left.
Data set [33] relates to SK-OV-3. Description: Antiproliferative activity against human SK-OV-3 cells. The class given is functional, cell-based.
Data set [34] has as its system NCI-H460. Description: Antiproliferative activity against human NCI-H460 cells. The class given is functional, cell-based.
In data set [35] the test system is Plasmodium falciparum. Briefly: Antimalarial activity against CQ-resistant Plasmodium falciparum 7G8. The class given is functional, organism-based.
The test system of data set [36] is Plasmodium falciparum. Description: Antimalarial activity against multidrug resistant Plasmodium falciparum Dd2. The class given is functional, organism-based.
Data set [37] has as its system Lymphocyte. Description: Cytotoxicity against mouse spleen lymphocytes. The class given is toxicity, cell-based.
Data set [38] has as its system Plasmodium falciparum. Briefly: Antimalarial activity against CQ-sensitive Plasmodium falciparum D6. The class given is functional, organism-based.
In data set [39] the target is Epidermal growth factor receptor (Homo sapiens, UniProt P00533). Briefly: Inhibition of EGFR (unknown origin).
Data set [40] deals with Cathepsin B (Homo sapiens) (UniProt P07858). Briefly: Inhibition of human cathepsin B endopeptidase activity at 50 uM relative to control.
In data set [41] the test system is A549. Briefly: Cytotoxicity against human A549 cells. The class given is functional, cell-based.
Data set [42] deals with Phosphatidylinositol 4,5-bisphosphate 3-kinase catalytic subunit gamma isoform (Homo sapiens, UniProt P48736). Briefly: Inhibition of PI3K gamma (unknown origin).
Data set [43] relates to K562. Briefly: Cytotoxicity against human K562 cells. The class given is functional, cell-based.

Sequence of Hepatocyte growth factor receptor (P08581 whole entry): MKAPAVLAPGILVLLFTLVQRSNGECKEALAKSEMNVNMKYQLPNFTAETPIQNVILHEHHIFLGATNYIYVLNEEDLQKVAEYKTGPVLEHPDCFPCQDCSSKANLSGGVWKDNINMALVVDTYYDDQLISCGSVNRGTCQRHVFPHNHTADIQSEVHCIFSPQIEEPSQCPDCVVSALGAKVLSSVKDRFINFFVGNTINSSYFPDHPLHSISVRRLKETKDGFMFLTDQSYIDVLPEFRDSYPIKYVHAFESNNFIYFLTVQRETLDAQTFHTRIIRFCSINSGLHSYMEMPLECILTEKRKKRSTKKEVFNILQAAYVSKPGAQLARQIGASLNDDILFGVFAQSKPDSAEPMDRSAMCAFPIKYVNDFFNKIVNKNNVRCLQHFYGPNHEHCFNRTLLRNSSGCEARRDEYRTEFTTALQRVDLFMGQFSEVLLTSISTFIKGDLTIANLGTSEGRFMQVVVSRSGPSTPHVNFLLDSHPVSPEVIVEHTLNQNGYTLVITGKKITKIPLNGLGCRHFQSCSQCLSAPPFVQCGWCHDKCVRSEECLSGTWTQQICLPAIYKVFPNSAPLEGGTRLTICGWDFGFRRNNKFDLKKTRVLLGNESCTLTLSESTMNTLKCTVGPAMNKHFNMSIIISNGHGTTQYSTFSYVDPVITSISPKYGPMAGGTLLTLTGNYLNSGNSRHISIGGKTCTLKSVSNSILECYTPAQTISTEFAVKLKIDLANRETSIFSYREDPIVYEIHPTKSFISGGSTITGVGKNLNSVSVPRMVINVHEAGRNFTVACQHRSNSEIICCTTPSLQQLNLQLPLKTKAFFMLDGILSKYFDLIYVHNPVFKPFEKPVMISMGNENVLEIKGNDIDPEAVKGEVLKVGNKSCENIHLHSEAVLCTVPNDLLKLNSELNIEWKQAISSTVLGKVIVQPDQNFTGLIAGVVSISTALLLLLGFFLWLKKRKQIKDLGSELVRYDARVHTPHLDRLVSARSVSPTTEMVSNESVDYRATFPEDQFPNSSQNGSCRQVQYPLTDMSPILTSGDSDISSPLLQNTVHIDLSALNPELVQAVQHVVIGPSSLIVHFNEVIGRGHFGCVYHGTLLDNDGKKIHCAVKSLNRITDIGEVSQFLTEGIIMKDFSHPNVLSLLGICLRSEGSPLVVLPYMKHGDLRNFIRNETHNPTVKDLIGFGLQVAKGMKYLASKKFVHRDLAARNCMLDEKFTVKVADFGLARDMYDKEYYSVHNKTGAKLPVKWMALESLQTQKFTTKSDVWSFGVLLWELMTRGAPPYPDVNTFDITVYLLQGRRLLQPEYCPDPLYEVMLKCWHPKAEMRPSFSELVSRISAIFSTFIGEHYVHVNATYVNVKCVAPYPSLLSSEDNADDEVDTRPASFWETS
Sequence of Dual specificity mitogen-activated protein kinase kinase 1 (Q02750 whole entry): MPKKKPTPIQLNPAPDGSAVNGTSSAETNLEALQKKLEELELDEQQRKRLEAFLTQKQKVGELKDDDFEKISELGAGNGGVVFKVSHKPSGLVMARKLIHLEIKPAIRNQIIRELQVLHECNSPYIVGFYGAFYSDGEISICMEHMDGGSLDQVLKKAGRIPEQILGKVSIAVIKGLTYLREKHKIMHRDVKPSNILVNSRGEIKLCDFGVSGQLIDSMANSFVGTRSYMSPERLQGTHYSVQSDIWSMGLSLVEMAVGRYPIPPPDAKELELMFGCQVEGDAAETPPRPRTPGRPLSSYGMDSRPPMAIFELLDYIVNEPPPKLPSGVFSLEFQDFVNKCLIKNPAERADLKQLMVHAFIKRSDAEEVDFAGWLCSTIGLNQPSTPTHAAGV
Sequence of Epidermal growth factor receptor (P00533 whole entry): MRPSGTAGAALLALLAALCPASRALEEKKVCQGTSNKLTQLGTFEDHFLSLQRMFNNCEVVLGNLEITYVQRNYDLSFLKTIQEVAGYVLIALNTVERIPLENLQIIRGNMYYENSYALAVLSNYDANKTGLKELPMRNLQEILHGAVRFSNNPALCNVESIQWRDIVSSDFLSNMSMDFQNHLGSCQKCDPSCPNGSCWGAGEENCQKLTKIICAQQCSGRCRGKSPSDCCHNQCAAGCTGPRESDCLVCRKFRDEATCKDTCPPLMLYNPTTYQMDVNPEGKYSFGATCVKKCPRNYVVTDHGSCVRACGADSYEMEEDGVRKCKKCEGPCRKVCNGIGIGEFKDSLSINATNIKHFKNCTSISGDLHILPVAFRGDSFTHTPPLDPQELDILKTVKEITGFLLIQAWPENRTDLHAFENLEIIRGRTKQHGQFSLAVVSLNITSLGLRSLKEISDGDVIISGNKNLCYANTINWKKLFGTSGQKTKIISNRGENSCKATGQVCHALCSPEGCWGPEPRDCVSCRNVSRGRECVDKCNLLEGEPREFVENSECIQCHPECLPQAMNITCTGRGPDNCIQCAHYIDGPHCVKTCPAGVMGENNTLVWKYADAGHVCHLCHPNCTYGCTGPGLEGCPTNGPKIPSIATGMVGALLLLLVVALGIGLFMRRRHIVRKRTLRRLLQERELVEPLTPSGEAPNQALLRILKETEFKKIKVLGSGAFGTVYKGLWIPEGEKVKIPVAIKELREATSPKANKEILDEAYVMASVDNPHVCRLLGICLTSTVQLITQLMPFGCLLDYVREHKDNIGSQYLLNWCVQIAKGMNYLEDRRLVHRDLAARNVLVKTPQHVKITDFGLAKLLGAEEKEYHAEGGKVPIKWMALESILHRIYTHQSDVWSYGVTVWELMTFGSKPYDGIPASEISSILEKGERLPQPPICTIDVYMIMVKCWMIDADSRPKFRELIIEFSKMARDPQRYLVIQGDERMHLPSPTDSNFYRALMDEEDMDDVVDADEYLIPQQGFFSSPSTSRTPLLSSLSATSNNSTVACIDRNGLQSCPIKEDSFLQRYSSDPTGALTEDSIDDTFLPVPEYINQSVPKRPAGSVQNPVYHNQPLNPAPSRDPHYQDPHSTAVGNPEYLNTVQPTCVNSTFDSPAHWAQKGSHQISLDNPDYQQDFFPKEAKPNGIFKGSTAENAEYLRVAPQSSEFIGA
Sequence of Histone-lysine N-methyltransferase, H3 lysine-79 specific (Q8TEK3 whole entry): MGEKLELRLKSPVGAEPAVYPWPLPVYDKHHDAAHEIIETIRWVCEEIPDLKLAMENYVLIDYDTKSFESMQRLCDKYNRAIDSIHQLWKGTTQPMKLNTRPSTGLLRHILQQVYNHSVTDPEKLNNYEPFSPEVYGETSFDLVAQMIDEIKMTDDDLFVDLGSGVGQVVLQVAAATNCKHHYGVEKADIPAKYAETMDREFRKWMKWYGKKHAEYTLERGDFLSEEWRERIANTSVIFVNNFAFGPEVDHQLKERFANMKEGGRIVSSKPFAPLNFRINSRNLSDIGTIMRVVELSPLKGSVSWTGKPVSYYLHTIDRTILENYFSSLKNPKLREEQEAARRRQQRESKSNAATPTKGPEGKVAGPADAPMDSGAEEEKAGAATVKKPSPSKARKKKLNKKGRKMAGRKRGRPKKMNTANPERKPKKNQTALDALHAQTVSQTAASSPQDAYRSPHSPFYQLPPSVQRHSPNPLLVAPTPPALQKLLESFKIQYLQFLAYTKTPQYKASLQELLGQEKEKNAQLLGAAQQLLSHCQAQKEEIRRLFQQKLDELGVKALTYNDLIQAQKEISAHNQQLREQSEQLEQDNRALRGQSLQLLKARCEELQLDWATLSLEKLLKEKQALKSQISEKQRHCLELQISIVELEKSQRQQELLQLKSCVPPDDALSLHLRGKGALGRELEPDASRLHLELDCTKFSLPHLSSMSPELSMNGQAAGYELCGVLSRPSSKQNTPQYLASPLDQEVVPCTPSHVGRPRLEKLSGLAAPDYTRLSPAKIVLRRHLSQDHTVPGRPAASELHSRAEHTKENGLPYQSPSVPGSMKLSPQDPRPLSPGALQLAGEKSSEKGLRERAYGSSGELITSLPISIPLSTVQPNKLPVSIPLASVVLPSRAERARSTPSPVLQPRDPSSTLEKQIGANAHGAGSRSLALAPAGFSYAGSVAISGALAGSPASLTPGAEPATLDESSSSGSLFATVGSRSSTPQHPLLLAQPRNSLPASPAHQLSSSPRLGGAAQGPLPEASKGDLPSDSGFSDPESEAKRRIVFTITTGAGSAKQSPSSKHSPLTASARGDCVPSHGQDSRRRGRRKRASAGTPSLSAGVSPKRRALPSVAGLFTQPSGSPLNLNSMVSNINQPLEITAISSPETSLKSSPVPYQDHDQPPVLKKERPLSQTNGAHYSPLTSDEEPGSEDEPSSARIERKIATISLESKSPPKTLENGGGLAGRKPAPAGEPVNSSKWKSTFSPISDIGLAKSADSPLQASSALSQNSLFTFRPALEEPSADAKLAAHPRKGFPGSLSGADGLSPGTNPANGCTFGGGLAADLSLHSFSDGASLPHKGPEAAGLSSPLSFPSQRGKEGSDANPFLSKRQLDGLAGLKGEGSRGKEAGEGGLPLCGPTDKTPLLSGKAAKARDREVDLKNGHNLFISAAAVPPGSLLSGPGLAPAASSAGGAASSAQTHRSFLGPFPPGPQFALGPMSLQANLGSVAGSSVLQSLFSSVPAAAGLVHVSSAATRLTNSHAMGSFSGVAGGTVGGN

As for `COc1cc(C(=O)/C=C/c2c(Cl)nc3c(C(=O)c4ccccc4)cccc3c2OC)cc(OC)c1OC`, the Activity in data set [1] and in data set [2] was 50% throughout.
By IC50 is commonly meant the concentration that gives 50% inhibition. Consider `COc1ccc(/C=C/c2cc(Nc3cc(OC)c(OC)c(OC)c3)c3c(OC)c(OC)c(OC)cc3n2)cc1OC`, for which the IC50 in data set [3] was 500 nM; in data set [4] (Homo sapiens, MCF7), 500 nM; in data set [5] it was 500 nM; in data set [6], 500 nM; in data set [7], 7820 nM.
As a reminder, the EC50 is the concentration giving half of the maximal effect. As usually defined, the inhibition is the relative decrease from the control value, in per cent. `CCN(CC)CCCC(C)Nc1ccnc2cc(Cl)ccc12` (configuration not stated) [CHLOROQUINE]: the Activity in data set [8] came to 0.32%; in data set [13] it was 100%. Also, the midpoint of the response in [9], the EC50, lay at 165 nM. Besides, the inhibition in data set [10] was determined as 52.1%. The half-maximal inhibitory concentration (IC50) in [11] was 890000 nM. Besides, the Time turned out to be 26.2 days in data set [12] and 24.99 days in data set [14].
As to `COc1cccc2c1C(=O)c1c(O)c3c(c(O)c1C2=O)C[C@@](O)(C(=O)CO)C[C@@H]3O[C@H]1C[C@H](N)[C@H](O)[C@H](C)O1` [DOXORUBICIN], the IC50 in data set [4] (mcf7) amounted to 1980 nM; in data set [15], 410 nM; in data set [16] it was 410 nM; in [17] it was 2440 nM; in [18], 270 nM; in data set [19] it was 270 nM.
As for `CC(=O)O[C@H]1C(=O)[C@@]2(C)[C@H]([C@H](OC(=O)c3ccccc3)[C@]3(O)C[C@H](OC(=O)[C@H](O)[C@@H](NC(=O)c4ccccc4)c4ccccc4)C(C)=C1C3(C)C)[C@]1(OC(C)=O)CO[C@@H]1C[C@@H]2O` [PACLITAXEL], the Activity in [20] is reported as 19%.
With `CN(C)CCNc1cc(/C=C/c2ccc(Br)cc2)nc2ccccc12`, in data set [21], the IC50 turned out to be 33 nM.
As usually defined, the GI50 is the concentration giving 50% growth inhibition. `COc1cc2nccc(Oc3ccc(NC(=O)C4(C(=O)Nc5ccc(F)cc5)CC4)cc3)c2cc1Oc1ccc(N)cn1`: the GI50 in data set [22], in [23] and in data set [25] was 290 nM throughout. Inhibition in data set [24] was half-maximal at 19 nM (IC50).
Take `CCN(CCNC(=O)Nc1ccc(C(C)(C)C)cc1)c1nc(C)cc(Nc2ccc3nc(C)cc(N)c3c2)n1`: the IC50 is 1620 nM in data set [26] and 5720 nM in [27].
`CN(C)CCNc1cc(/C=C/c2cccs2)nc2ccccc12` returned an IC50 in data set [21] of 33 nM.
Regarding `COc1cc2nccc(Oc3ccc(NC(=O)C4(C(=O)Nc5ccc(F)cc5)CC4)cc3)c2cc1OC(=O)c1ccc(N)cc1`, the GI50 in data set [22], in data set [23] and in data set [25] was 290 nM each time. In data set [24], this compound returned an IC50 of 19 nM.
`Cc1c(Cc2cccc(N(C)S(=O)(=O)CCCNCCCC(=O)N3CCN(c4ccc(Nc5c(C(N)=O)cnc6ccc(-c7cnc8ccccc8c7)cc56)cc4C(F)(F)F)CC3)c2)c(=O)oc2cc(OC(=O)N(C)C)ccc12`: it took 4660 nM to inhibit growth in data set [16] by half (GI50). Besides, the IC50 turned out to be 190 nM in data set [28] and 980 nM in [29].
Turning to `Cc1cc2nc(-c3cc4ccccc4nc3Cl)[nH]c2cc1C`, the IC50 in data set [30], in [31], in data set [33] and in data set [34] was 7540 nM each time. Moreover, the Activity in data set [32] turned out to be 19.5%.
In general, LC50 refers to the concentration that kills 50% of the test population. In the case of `Clc1ccc2c(NCCCN3CCC(Nc4ccnc5cc(Cl)ccc45)CC3)ccnc2c1`, the results for the IC50 in [35], in [36] and in [38] were 0.33 nM, 0.36 nM and 0.15 nM, respectively. Besides, the LC50 in [37] came to 190 nM.
Consider `Cc1ccc2nc(/C=C/c3ccc(N(C)C)cc3)cc(-c3nnc(N)s3)c2c1`, for which the values for the IC50 in data set [31], in data set [16] and in [39] were 7.7 µg/mL, 7.7 µg/mL and 1110 nM, respectively.
In data set [40], `O=[N+]([O-])c1ccc(O)c2ncccc12` gave an inhibition of 27.7%.
In the case of `Cc1ccc(-c2cc(C(=O)N/N=C(\C=C\c3ccc(Cl)cc3)c3ccc(N)cc3)c3ccccc3n2)cc1`, the IC50 is 1910 nM in data set [41], 197 nM in [42] and 1910 nM in [43].
